Active and inactive are the calls of the source.
Key:
[1] = biological target: T1, Caspase-3 (Homo sapiens, UniProt P42574); format: functional;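 note: Dose-response selectivity test against caspase-3 for candidate inhibitors of sentrin-specific proteases (SENPs)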
T1 sequence (P42574 whole entry): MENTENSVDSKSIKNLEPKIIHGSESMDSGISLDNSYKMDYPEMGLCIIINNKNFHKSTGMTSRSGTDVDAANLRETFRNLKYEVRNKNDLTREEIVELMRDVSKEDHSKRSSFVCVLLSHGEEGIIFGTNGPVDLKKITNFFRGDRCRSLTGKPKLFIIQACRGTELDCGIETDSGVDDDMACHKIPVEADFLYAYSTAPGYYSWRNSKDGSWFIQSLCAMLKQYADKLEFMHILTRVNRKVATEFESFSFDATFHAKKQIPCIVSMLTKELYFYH

[2] = biological target: T2, Sentrin-specific protease 6 (Homo sapiens, UniProt Q9GZR1); format: functional;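 note: Luminescence-based dose-response confirmatory assay of SENP6 inhibition, following up an ultra-high-throughput screen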
T2 sequence (Q9GZR1 whole entry): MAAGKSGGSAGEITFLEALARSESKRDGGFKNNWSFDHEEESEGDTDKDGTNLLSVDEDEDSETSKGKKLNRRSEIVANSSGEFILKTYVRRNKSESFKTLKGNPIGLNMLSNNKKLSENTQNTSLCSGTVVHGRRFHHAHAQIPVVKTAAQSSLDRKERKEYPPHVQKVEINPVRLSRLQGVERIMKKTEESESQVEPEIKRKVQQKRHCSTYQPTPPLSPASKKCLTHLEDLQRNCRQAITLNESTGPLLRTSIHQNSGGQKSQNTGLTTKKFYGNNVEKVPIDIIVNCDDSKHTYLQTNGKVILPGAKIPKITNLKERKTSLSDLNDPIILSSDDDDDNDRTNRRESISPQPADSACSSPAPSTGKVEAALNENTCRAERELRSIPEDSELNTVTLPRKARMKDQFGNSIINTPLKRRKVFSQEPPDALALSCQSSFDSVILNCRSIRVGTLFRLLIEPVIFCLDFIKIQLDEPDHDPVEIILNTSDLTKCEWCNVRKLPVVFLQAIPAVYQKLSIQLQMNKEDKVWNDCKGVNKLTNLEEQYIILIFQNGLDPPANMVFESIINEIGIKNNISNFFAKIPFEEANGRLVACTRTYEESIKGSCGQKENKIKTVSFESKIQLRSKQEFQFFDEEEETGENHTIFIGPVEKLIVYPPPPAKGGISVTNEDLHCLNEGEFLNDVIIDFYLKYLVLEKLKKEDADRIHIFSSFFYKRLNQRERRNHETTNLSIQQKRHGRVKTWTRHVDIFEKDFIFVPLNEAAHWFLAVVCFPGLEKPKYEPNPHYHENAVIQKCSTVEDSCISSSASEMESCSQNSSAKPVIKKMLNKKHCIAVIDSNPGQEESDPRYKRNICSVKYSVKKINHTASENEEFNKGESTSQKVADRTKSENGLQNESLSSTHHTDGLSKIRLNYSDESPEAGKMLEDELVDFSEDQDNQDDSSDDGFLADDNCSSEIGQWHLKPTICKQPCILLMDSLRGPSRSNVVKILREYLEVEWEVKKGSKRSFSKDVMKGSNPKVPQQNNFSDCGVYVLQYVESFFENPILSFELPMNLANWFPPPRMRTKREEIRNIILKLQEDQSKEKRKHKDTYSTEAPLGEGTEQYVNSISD

[3] = biological target: T3, Sentrin-specific protease 7 (Homo sapiens, UniProt Q9BQF6); format: functional;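 note: Luminescence-based dose-response confirmation of ultra-high-throughput screening hits, measuring inhibition of SENP7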
T3 sequence (Q9BQF6 whole entry): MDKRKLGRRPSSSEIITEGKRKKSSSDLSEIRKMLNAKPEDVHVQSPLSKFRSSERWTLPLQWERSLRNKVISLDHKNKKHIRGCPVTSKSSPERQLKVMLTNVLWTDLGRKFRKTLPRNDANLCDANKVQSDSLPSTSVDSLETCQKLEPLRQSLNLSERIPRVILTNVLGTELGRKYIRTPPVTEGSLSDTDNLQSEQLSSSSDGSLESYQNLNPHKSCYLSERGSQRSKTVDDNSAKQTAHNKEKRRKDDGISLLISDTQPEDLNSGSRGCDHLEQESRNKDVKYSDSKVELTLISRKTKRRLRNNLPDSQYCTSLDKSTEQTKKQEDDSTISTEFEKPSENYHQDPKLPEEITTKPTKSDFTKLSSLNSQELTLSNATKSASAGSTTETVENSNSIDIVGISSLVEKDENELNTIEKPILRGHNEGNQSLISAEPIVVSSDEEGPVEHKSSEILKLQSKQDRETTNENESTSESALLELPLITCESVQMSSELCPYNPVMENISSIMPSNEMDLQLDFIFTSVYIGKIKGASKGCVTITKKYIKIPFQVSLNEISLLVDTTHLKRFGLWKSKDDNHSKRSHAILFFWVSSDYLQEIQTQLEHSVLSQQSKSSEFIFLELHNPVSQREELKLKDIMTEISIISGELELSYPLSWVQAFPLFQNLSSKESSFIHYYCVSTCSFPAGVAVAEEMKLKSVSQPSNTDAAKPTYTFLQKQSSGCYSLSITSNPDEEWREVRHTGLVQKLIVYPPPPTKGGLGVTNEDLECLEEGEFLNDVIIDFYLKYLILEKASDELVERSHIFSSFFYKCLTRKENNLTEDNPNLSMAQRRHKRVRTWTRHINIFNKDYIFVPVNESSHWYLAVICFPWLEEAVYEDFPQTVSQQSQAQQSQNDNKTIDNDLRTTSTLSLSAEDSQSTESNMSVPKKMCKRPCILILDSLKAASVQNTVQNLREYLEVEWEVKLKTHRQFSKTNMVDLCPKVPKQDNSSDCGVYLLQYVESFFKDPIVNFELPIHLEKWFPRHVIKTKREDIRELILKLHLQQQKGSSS

[4] = biological target: T4, Sentrin-specific protease 8 (Homo sapiens, UniProt Q96LD8); format: functional;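 note: luminescence read-out of SENP8 inhibition, dose-response confirmation following an ultra-high-throughput screen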
T4 sequence (Q96LD8 whole entry): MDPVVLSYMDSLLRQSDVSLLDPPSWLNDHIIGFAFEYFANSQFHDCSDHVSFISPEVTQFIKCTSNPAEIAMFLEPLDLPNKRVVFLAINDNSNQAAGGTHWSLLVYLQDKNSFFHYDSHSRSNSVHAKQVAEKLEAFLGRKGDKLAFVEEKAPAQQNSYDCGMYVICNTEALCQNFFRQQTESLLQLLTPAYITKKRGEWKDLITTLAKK

[5] = biological target: ATP-dependent molecular chaperone HSP82 (Candida albicans (strain WO-1) (Yeast), UniProt C4YTQ8); assay: loss of DOC-induced GRE-beta-galactosidase reporter signal, dose response, Hsp90 inhibitor project, S. cerevisiae, luminescence (AID 2400); format: functional, cell-based;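 note: beta-galactosidase luminescence from glucocorticoid response element reporter as proxy for Hsp90 function; inhibitor potency where signal loss means Hsp90 inhibition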
[6] = C. albicans growth with fluconazole, confirmation, fluorescence, retest (AID 2467); format: functional, cell-based
[7] = biological target: T5, Serine/threonine-protein phosphatase (Candida dubliniensis (strain CD36 / CBS 7987 / NCPF 3949 / NRRLY-17841) (Yeast), UniProt B9W6M3); assay: calcineurin pathway inhibitors in yeast reporter, dose response, S. cerevisiae, CDRE-lacZ, luminescence, secondary (AID 2388); format: functional, cell-based;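 note: yeast reporter cells carrying a calcineurin-responsive lacZ construct stimulated with calcium chloride; luminescent beta-galactosidase reporter signal in whole cells rather than isolated phosphatase activity; potency for inhibition where a drop in reporter signal means calcineurin blockade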
T5 sequence (B9W6M3 whole entry): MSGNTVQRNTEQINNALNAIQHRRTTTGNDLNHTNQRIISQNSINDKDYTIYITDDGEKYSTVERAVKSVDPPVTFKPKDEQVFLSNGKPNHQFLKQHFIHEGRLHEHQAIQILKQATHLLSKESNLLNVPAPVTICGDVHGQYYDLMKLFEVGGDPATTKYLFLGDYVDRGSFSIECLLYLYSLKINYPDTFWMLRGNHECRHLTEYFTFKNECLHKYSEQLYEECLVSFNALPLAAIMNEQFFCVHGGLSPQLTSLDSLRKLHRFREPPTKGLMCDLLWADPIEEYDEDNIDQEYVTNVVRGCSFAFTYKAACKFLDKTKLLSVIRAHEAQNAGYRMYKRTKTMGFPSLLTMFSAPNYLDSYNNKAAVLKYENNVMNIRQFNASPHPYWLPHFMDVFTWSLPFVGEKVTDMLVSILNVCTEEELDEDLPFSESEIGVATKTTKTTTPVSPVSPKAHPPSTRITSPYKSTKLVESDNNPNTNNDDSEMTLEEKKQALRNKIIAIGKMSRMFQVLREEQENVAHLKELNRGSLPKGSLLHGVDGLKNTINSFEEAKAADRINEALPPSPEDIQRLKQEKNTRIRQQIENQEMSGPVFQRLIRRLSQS

[8] = biological target: Heat shock protein HSP 90-alpha (Homo sapiens, UniProt P07900); format: functional, organism-based
[9] = cytotoxicity toward NIH3T3 fibroblasts, dose response, counter-screen, cell-based, ATP luminescence, mouse fibroblasts (AID 2010); format: functional;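 note: cells exposed to compound for about 90 hours before reading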
[10] = cells; format: functional, cell-based
[11] = inhibitors of intracellular T. cruzi replication, confirmation, NIH3T3 host cells, beta-gal luminescence (AID 2044); format: functional, cell-based;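 note: intracellular parasites grown in NIH/3T3 mouse fibroblasts as host cells; luminescent beta-galactosidase reporter signal from transgenic T. cruzi replicating inside host cells; inhibitors lower the luminescence signal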
[12] = cells; format: functional, cell-based; remark: listed apart in the source
[13] = NIH-3T3 fibroblast cytotoxicity, dose response, cytotoxicity control, cell-based, fluorescence, Alamar Blue, secondary assay (AID 2327); format: functional;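 note: NIH-3T3 mouse fibroblasts cultured with fluconazole at 8 µg/mL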
[14] = cytotoxicity in HEK-293T cells, dose response, cytotoxicity control for TCR NF-kB inhibitor project, luminescence, T-cell screen hits (AID 489026); format: functional, cell-based;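 note: cells exposed to compound about 14 hours before the viability readout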
[15] = system: INS1; assay: beta cell apoptosis inhibitors, cytokine rescue, dose response, luminescence, retest (AID 449756); format: functional, cell-based; conditions: Rattus norvegicus;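 note: cell death triggered by IL-1 beta plus TNF-alpha plus IFN-gamma mixture; protective hits raise ATP signal compared with cytokine alone wells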
[16] = HepG2 cell cytotoxicity, dose response, cytotoxicity control for Shn3 inhibitor project, CellTiter-Glo, cherry-picked (AID 624134); format: functional, cell-based
[17] = Shn3 3'UTR reporter inhibitors, dose response, cell-based, Clone20 osteoblasts, firefly luciferase, cherry-picked (AID 624132); format: functional;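 note: firefly luciferase luminescence from reporter carrying the Shn3 3'UTR in osteoblasts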
[18] = biological target: Nonstructural protein 1 (Influenza A virus, UniProt Q194T2); format: functional, Influenza A virus (A/California/07/2009(H1N1))
[19] = biological target: T6, Heat shock factor protein 1 (Mus musculus, UniProt P38532); assay: inhibition of MG132-induced HSE-luciferase signal, confirmation, cell-based, NIH3T3, luminescence, dose retest (AID 2382); format: functional;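 note: NIH3T3 fibroblasts with HSF1-driven luciferase reporter stressed by proteasome inhibitor MG132; luminescence from HSF1-driven luciferase expression after 8 hours of MG132 stress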
T6 sequence (P38532 whole entry): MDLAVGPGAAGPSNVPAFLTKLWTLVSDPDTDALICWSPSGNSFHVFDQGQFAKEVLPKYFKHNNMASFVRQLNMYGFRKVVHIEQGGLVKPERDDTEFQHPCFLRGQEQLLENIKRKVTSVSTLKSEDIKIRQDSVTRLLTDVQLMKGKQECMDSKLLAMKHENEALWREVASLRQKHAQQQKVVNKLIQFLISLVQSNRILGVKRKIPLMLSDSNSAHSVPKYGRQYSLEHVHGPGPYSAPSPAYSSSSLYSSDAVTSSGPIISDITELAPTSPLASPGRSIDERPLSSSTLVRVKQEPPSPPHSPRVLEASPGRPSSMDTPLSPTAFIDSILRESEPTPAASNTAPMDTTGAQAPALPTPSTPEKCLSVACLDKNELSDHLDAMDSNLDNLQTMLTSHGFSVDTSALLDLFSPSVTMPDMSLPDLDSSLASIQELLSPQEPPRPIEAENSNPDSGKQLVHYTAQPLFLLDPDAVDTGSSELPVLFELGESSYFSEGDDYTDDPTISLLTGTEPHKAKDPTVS

[20] = biological target: T7, Microphthalmia-associated transcription factor (Homo sapiens, UniProt O75030); assay: TRPM1 promoter luciferase signal decrease, dose response, MITF inhibitor project, cell-based, SK-MEL-5, cherry-picked, set 3 (AID 493073); format: functional
T7 sequence (O75030 whole entry): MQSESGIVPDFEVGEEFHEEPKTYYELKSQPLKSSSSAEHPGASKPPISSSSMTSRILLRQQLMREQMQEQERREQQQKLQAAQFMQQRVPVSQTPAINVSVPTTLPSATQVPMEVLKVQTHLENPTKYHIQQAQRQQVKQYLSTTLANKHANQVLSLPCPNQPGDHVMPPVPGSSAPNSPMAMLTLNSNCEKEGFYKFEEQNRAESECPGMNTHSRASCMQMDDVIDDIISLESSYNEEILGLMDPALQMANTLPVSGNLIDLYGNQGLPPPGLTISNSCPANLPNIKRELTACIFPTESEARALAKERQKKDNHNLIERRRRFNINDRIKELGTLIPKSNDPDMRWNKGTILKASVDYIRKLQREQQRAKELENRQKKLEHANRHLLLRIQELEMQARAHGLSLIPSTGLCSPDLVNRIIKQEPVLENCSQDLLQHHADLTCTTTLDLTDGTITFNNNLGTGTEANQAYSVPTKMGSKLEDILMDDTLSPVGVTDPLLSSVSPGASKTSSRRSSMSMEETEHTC

[21] = system: A-375; assay: MITF: Counter assay: A375 proliferation Measured in Cell-Based System Using Plate Reader - 2084-03_Inhibitor_Dose_DryPowder_Activity. [Related pubchem assays (depositor defined):AID488944]; format: functional; conditions: Homo sapiens
[22] = biological target: Photoreceptor-specific nuclear receptor (Homo sapiens, UniProt Q9Y5X4); format: functional, cell-based;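 note: CHO-S cells with Gal4-NCOR and VP16-NR2E3 two-hybrid luciferase reporter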
[23] = control 3'UTR Renilla luciferase suppression, dose response, counter-screen for Shn3 inhibitor project, cell-based, Clone20-Shn3RL, cherry-picked (AID 624133); format: functional

ATP-dependent molecular chaperone HSP82, sequence (C4YTQ8 whole entry): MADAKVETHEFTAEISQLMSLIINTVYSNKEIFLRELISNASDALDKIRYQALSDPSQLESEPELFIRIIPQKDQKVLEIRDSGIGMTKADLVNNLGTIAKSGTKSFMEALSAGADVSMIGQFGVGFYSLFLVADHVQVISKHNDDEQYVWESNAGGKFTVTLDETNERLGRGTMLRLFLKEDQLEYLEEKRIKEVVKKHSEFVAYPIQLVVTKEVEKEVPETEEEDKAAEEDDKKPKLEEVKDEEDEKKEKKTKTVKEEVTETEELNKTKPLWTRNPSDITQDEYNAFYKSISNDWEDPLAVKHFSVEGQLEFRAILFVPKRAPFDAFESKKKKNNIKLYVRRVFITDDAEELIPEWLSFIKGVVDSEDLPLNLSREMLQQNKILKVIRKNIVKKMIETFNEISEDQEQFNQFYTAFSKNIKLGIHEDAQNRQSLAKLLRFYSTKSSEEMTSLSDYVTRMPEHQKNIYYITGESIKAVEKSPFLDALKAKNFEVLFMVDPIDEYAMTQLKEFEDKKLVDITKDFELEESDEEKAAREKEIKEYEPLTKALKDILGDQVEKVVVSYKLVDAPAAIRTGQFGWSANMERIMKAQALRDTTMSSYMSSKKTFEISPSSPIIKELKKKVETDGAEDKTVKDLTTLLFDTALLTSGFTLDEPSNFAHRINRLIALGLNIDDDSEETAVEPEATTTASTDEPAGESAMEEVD
Nonstructural protein 1, sequence (Q194T2 whole entry): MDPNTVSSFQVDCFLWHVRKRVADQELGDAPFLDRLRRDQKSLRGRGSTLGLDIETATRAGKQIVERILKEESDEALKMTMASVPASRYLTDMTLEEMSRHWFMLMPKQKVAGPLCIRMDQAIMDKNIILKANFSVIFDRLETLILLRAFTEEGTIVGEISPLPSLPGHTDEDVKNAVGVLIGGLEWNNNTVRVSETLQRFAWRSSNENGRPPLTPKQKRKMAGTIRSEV
Photoreceptor-specific nuclear receptor, sequence (Q9Y5X4 whole entry, the tested form may be a part): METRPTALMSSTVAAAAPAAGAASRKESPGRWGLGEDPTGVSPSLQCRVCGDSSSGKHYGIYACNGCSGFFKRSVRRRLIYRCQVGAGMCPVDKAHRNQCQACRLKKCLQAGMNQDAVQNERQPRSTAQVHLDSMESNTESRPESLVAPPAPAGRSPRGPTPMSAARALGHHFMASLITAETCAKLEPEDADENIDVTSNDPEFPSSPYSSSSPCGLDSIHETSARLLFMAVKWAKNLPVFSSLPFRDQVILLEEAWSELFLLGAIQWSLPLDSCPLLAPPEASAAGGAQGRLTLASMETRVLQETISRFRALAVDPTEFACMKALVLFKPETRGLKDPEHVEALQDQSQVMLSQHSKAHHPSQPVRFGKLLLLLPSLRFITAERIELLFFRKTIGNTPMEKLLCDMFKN

CSc1ncccc1C(=O)OCc1ccccc1
IC50 [1]: 21.3 µM (active)
IC50 [2]: 31.8 µM (active)
IC50 [3]: 9.53 µM (active)
IC50 [4]: 43.6 µM (active)

O=C(N/N=C/c1c(O)ccc2ccccc12)c1cccc(C(F)(F)F)c1
EC50 [5]: 9.34 µM (active)
EC50 [6]: 452 nM (active)
EC50 [7]: > 180 µM (inactive)
AC50 [8]: 2.24 µM (active)
EC50 [9]: 6.11 µM (active)
EC50 [10]: 8.23 µM (active)
EC50 [11]: 686 nM (active)
EC50 [12]: > 350 µM (not active)
EC50 [13]: 26.9 µM (active)
IC50 [14]: > 80 µM (inactive)

O=[N+]([O-])c1cc(CN2CCN(c3ccccc3)CC2)c(O)c2ncccc12
EC50 [5]: 18 µM (active)
EC50 [6]: 201 nM (active)
EC50 [7]: > 180 µM (inactive)
AC50 [15]: 1.17 µM (active)
AC50 [16]: 3.74 µM (active)
AC50 [17]: 1.99 µM (active)
IC50 [18]: 3.42 µM (active)
EC50 [9]: 0.809 µM (active)
EC50 [19]: > 195 µM (not active)
EC50 [11]: 295 nM (active)
AC50 [20]: 8.3 µM (active)
AC50 [21]: 49.4 µM (active)
EC50 [13]: 23 µM (inconclusive)
IC50 [22]: 13.9 µM (inactive)
AC50 [23]: 2.28 µM (active)
